What follows are compounds tested against T1, human FAAH (Fatty Acid Amide Hydrolase) (Homo sapiens, UniProt O00519) (assay: FAAH whole cell assay on CHO cells expressing human FAAH (human WC), AAMCA fluorescent substrate). Conditions: human FAAH_CHO whole cell.
T1 construct: The full length FAAH was subcloned into the mammalian expression vector, pcDEF.neo, using XbaI and EcoRI restriction sites; expressed in transfected cells
T1 sequence (O00519 1-579): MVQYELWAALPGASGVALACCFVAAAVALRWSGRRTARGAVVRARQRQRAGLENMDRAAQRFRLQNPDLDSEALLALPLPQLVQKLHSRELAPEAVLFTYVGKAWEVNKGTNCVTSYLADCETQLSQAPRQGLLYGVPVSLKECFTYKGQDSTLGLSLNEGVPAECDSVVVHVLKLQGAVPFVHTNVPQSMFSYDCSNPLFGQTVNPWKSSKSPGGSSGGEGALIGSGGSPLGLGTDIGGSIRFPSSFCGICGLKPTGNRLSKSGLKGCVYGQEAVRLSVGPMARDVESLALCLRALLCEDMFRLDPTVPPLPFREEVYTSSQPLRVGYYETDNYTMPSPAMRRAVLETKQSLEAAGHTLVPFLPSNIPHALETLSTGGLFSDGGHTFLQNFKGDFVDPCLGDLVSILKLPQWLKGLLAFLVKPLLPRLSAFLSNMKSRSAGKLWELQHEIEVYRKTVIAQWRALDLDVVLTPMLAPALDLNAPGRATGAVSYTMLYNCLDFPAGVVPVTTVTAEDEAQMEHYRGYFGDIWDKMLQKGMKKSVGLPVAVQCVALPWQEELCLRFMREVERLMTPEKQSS
Format: cell-based
Description: (§1) To assist in assay development stable cell lines for human, murine and rat full length FAAH were developed. Human FAAH cDNA (Accession No: NM_001441.1) was purchased from Origene (Rockville, Md.). The full length FAAH was subcloned into the mammalian expression vector, pcDEF.neo, using XbaI and EcoRI restriction sites and used for stable cell line generation.
Murine (accession number NM_010173) and Rat FAAH (accession number NM_024132) was amplified by reverse transcriptase polymerase chain reaction (RT-PCR) from brain cDNA (BD Biosciences, San Jose, Calif.) using primers 1 and 2 or primers 1 and 3 respectively (see Table). The resulting PCR product was ligated into pCR4 TOPO and DNA sequence confirmed. The full length murine FAAH was subcloned into the mammalian expression vector, pcDEFneo using either EcoRI (murine) or KpnI and EcoRI (rat) restriction sites. Chinese hamster ovary cells (CHO) were transfected following manufacturers protocol (AMAXA). Forty eight hours post transfection, cells were trypsinized and transferred to 96 well plates in Iscove's DMEM media supplemented with 2 mM Glutamine, 10% fetal calf serum, 1 mg/ml geneticin and HT Supplement (0.1 mM sodium hypoxanthine, 0.016 mM thymidine) in order to isolate single clones. Following selection in geneticin, individual clones were selected and FAAH activity was assessed using a whole cell fluorescent anandamide assay, modified from Ramarao et al (2005). Following removal of tissue culture media cells were dislodged following addition of Cellstripper (Mediatech, Inc. Manassas, Va.) and transferred to 96 well black clear bottom assay plate, centrifuged at 1,000 rpm for 3 mins and media removed and replaced with assay buffer (50 mM Tris pH8.0, 1 mM EDTA, 0.1% fatty acid free BSA). The reaction was initiated by addition of fluorescent substrate, AMC Arachidonoyl Amide (Cayman Chemical, Ann Arbor, Mich.) to 1 μM and reaction allowed to proceed for 2 hours at room temperature. Release of fluorescence was monitored in a CytoFluor Multiplate Reader. Cells expressing the highest amount of FAAH activity were selected for study with FAAH inhibitors.
(§2) (American Radiolabeled Chemicals; 1 mCi/ml) with FAAH (Life Sciences (1995), 56, 1999-2005 and Journal of Pharmacology and Experimented Therapeutics (1997), 283, 729-734), Analytical. Biochemistry (2003), 318, 270-5. In addition, routine assays were performed monitoring hydrolysis of arachidonyl-7-amino-4-methylcoumarin amide (AAMCA) by following increase in fluorescence upon release of 7-amino 4-methyl coumarin (λEX=355 nm, μEM=460 nm). Analytical. Biochemistry (2005). 343, 143-51
Assays are performed on either cell lysate or microsome fractions prepared as described or in whole cell format employing either the fluorescent substrate AAMCA (Cayman chemical, Ann Arbor, Mich.,) or ^3H-anandamide ([ETHANOLAMINE-1-3H] American Radiolabeled Chemicals; 1 mCi/ml). The cell lysate or microsome assay is performed in black PerkinElmer OptiPlates-384F by adding FAAH_CHO (whole cell (human whole cell or human WC), cell lysate (human cell lysate or human LY) or microsome) in assay buffer (50 mM Phosphate, pH 8.0, 1 mM EDTA, 200 mM KCl, 0.2% glycerol, 0.1% fatty acid free BSA) to each well, followed by either DMSO or compound and allowed to incubate at 22-25° C. for fifteen minutes. AAMCA substrate was used to achieve a final concentration of 1 μM and reaction allowed to proceed at room temperature for 1-3 hours. Fluorescent release as a measure of FAAH activity was monitored by reading the plate in a Envision plate Reader (Ex: 360/40 nM; Em: 460/40 nM). Whole cell assay is conducted with cells harvested after rinsing tissue culture flasks three times with Ca^++Mg^++ free PBS, incubating for […] in Enzyme free dissociation media and centrifuging for 5 minutes at 1,000 rpm in table top centrifuge. […]

Compound | IC50
NC1CC=C(c2[nH]c3ncccc3c2Sc2ccc(Cl)cc2)CC1 (centres unmarked) [Example B46] | 1410 nM
CC(C)(O)/C=C/c1[nH]c2ncccc2c1Sc1ccc(Cl)cc1 [Example B34] | 1110 nM
COc1ccc(-c2[nH]c3ncccc3c2Sc2ccc(Cl)cc2)cn1 [Example B43] | 18.9 nM
CC(C1COc2ccccc2O1)N(C)C(=O)c1[nH]c2ncccc2c1Sc1ccc(Cl)cc1 (centres unmarked) [Example C13] | 2630 nM
CSc1ccc(-c2[nH]c3ncccc3c2Sc2ccc(Cl)cn2)cc1 [Example A14] | 35.6 nM
CC(C)Oc1ccc(-c2[nH]c3ncccc3c2Sc2ccc(Cl)cc2)cc1 [Example A17] | 154 nM
CC(=O)c1ccc(-c2[nH]c3ncccc3c2Sc2ccc(Cl)cc2)s1 [Example B29] | 41.1 nM
CCNC(=O)C1CC=C(c2[nH]c3ncccc3c2Sc2ccc(Cl)cc2)CC1 (centres unmarked) [Example B48] | 29.1 nM
COc1ccc(-c2[nH]c3ncccc3c2Sc2ccc(Cl)cc2)cc1 [Example B8] | 10.3 nM
Cn1ccc2cc(-c3[nH]c4ncccc4c3Sc3ccc(Cl)cc3)ccc21 [Example B11] | 10.2 nM

Results, then the compound that gave them:

IC50 | Compound
1210 nM | Cn1cccc2c(Sc3ccc(Cl)cn3)c(C3=CCC(O)CC3)nc1-2 (centres unmarked) [Example E19]
82.5 nM | Cn1cccc2c(Sc3ccc(Cl)cn3)c(-c3ccc4[nH]ncc4c3)nc1-2 [Example E9]
1390 nM | NC(=O)CCn1cccc2c(Sc3ccc(Cl)cc3)c(-c3ccc4c(c3)OCO4)nc1-2 [Example E21]
3220 nM | Clc1ccc(Sc2c3cccn(CCn4cccc4)c-3nc2-c2ccc3c(c2)OCO3)cc1 [Example E22]
186 nM | Cn1c(-c2ccc(C(O)C(F)(F)F)cc2)c(Sc2ccc(Cl)cc2)c2cccnc21 (centres unmarked) [Example E33]
115 nM | OCCn1c(-c2ccc3c(c2)OCO3)c(Sc2ccc(Cl)cc2)c2cccnc21 [Example E35]

These compounds were tested against T1, human FAAH (Fatty Acid Amide Hydrolase) (assay: FAAH enzyme assay on CHO cell lysate expressing human FAAH (human LY), AAMCA fluorescent substrate). Conditions: human FAAH_CHO cell lysate.
Format: biochemical
Description: as §1
CHO cells expressing FAAH were used to prepare either crude cell lysate or microsome fractions. To harvest cells, tissue culture media was decanted, the monolayer washed three times with Ca^++Mg^++ free PBS and cells recovered after […] in enzyme free dissociation media (Millipore Corp, Billerica, Mass.). Cells were collected by centrifuging at 2000 rpm for 15 min. and the cell pellet re-suspended with 50 mM HEPES (pH 7.4) containing 1 mM EDTA and the protease inhibitors aprotinin (1 mg/ml) and leupeptin (100 μM). The suspension was sonicated at 4° C. and the cell lysate recovered after centrifuging at 12,000×g (14,600 rpm, SS34 rotor) for 20 min at 4° C. to form a crude pellet of cell debris, nuclei, peroxisomes, lysosomes, and mitochondria; the supernatant or cell lysate was used for FAAH enzyme assay. In some cases, microsomes fractions enriched in FAAH were prepared by centrifuging the cell lysate further at 27,000 rpm (100,000×g) in SW28 rotor for 50 minutes at 4° C. The pellet containing FAAH-enriched microsomes was re-suspend in 50 mM HEPES, (pH 7.4) 1 mM EDTA, and any remaining DNA sheared by passage of material through a 23 gauge needle and aliquots of enzyme were store at −80° C. prior to use.
as §2
Assays are performed on either cell lysate or microsome fractions prepared as described or in whole cell format employing either the fluorescent substrate AAMCA (Cayman chemical, Ann Arbor, Mich.,) or ^3H-anandamide ([ETHANOLAMINE-1-3H] American Radiolabeled Chemicals; 1 mCi/ml). The cell lysate or microsome assay is performed in black PerkinElmer OptiPlates-384F by adding FAAH_CHO (whole cell (human whole cell or human WC), cell lysate (human cell lysate or human LY) or microsome) in assay buffer (50 mM Phosphate, pH 8.0, 1 mM EDTA, 200 mM KCl, 0.2% glycerol, 0.1% fatty acid free BSA) to each well, followed by either DMSO or compound and allowed to incubate at 22-25° C. for fifteen minutes. AAMCA substrate was used to achieve a final concentration of 1 μM and reaction allowed to proceed at room temperature for 1-3 hours. Fluorescent release as a measure of FAAH activity was monitored by reading the plate in a Envision plate Reader (Ex: 360/40 nM; Em: 460/40 nM). Whole cell assay is conducted with cells harvested after rinsing tissue culture flasks three times with Ca^++Mg^++ free PBS, incubating for […] in Enzyme free dissociation media and centrifuging for 5 minutes at 1,000 rpm in table top centrifuge. Cells are resuspended in assay buffer at desired cell number in (4×10^4 cells/assay in 96-well format; 1×10^4 cells/assay in 384-well format) and assayed as described.

Compound | IC50
NC1CC=C(c2[nH]c3ncccc3c2Sc2ccc(Cl)cc2)CC1 (centres unmarked) [Example B46] | 114 nM
CC(C)(O)/C=C/c1[nH]c2ncccc2c1Sc1ccc(Cl)cc1 [Example B34] | 213 nM
COc1ccc(-c2[nH]c3ncccc3c2Sc2ccc(Cl)cc2)cn1 [Example B43] | 3.42 nM
CC(C1COc2ccccc2O1)N(C)C(=O)c1[nH]c2ncccc2c1Sc1ccc(Cl)cc1 (centres unmarked) [Example C13] | 256 nM
CSc1ccc(-c2[nH]c3ncccc3c2Sc2ccc(Cl)cn2)cc1 [Example A14] | 2.98 nM
CC(C)Oc1ccc(-c2[nH]c3ncccc3c2Sc2ccc(Cl)cc2)cc1 [Example A17] | 11.6 nM
CC(=O)c1ccc(-c2[nH]c3ncccc3c2Sc2ccc(Cl)cc2)s1 [Example B29] | 10.2 nM
CCNC(=O)C1CC=C(c2[nH]c3ncccc3c2Sc2ccc(Cl)cc2)CC1 (centres unmarked) [Example B48] | 9.5 nM
COc1ccc(-c2[nH]c3ncccc3c2Sc2ccc(Cl)cc2)cc1 [Example B8] | 2.34 nM
Cn1ccc2cc(-c3[nH]c4ncccc4c3Sc3ccc(Cl)cc3)ccc21 [Example B11] | 3.29 nM

Now from value to compound:

IC50 | Compound
181 nM | Cn1cccc2c(Sc3ccc(Cl)cn3)c(C3=CCC(O)CC3)nc1-2 (centres unmarked) [Example E19]
15.4 nM | Cn1cccc2c(Sc3ccc(Cl)cn3)c(-c3ccc4[nH]ncc4c3)nc1-2 [Example E9]
317 nM | NC(=O)CCn1cccc2c(Sc3ccc(Cl)cc3)c(-c3ccc4c(c3)OCO4)nc1-2 [Example E21]
497 nM | Clc1ccc(Sc2c3cccn(CCn4cccc4)c-3nc2-c2ccc3c(c2)OCO3)cc1 [Example E22]
106 nM | Cn1c(-c2ccc(C(O)C(F)(F)F)cc2)c(Sc2ccc(Cl)cc2)c2cccnc21 (centres unmarked) [Example E33]
31.7 nM | OCCn1c(-c2ccc3c(c2)OCO3)c(Sc2ccc(Cl)cc2)c2cccnc21 [Example E35]

— patent US20130059850A1, “AZA-INDOLE DERIVATIVES USEFUL AS MODULATORS OF FAAH” (MERCK SHARP & DOHME CORP., priority 2010, published 2013)
